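Cultured in 96-well plates, cells were exposed to test compound for 48 hours across five concentrations. GI50: concentration for 50% inhibition of growth.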 Active and inactive are the calls of the source. Cut-off read from the data, not from the text of the source: active = GI50 up to about 1.1 µM and inactive = higher.
Legend:
Assay in all cases: NCI anticancer screen, dose series, 48 h
[1] = tested on: IGROV-1
[2] = tested on: SF-268
[3] = tested on: SK-OV-3
[4] = tested on: COLO 205
[5] = tested on: OVCAR-8
[6] = tested on: HL-60
[7] = tested on: OVCAR-4
[8] = tested on: HCT-116
[9] = tested on: SW-620
[10] = tested on: HOP-92
[11] = tested on: UO-31
[12] = tested on: Malme-3M
[13] = tested on: RPMI-8226
[14] = tested on: SF-295
[15] = tested on: BT-549
[16] = tested on: HOP-62
[17] = tested on: KM12
[18] = tested on: MCF7
[19] = tested on: M14
[20] = tested on: SF-539

Measured: GI50

CCOc1ccc(/N=N/C2C(=O)N(C(=O)CC(=O)Nc3ccc(Cl)cc3)N=C2C)cc1 (stereo not given)
inactive: [1] > 100 µM | [2] > 100 µM | [3] > 100 µM | [4] > 100 µM | [5] 64.1 µM | [6] > 100 µM | [7] > 100 µM | [8] > 100 µM | [9] > 100 µM | [10] > 100 µM | [11] > 100 µM | [12] > 100 µM | [13] > 100 µM | [14] > 100 µM | [15] > 100 µM | [16] > 100 µM | [17] > 100 µM | [18] > 100 µM | [19] > 100 µM | [20] > 100 µM

CCN1c2cc(Br)cc3[nH]c(=O)n(c23)CCC1C (stereo not given)
inactive: [1] 13.9 µM | [2] 14.2 µM | [3] 19.4 µM | [4] 14.9 µM | [5] 14.4 µM | [6] 11.9 µM | [7] 20 µM | [8] 14.8 µM | [9] 5.48 µM | [10] 1.49 µM | [11] 14 µM | [12] 21.5 µM | [13] 10.3 µM | [14] 16 µM | [15] 6.85 µM | [16] 18 µM | [17] 15.1 µM | [18] 19.7 µM | [19] 17.2 µM | [20] 34.2 µM

CC(C)(C)c1cc(OCc2nnc(S)n2N)c(Cl)cc1OCc1nnc(S)n1N
inactive: [1] 44.9 µM | [2] 45.5 µM | [3] > 100 µM | [4] 42.2 µM | [5] 50.5 µM | [6] 4.19 µM | [7] 43.3 µM | [8] 33 µM | [9] 43.2 µM | [10] 28.1 µM | [11] 63.2 µM | [12] 38.1 µM | [13] 29.5 µM | [14] 43.1 µM | [15] 37.5 µM | [16] 59 µM | [17] 40.9 µM | [18] 38.5 µM | [19] 51.3 µM | [20] 48.3 µM

CCC(C(=O)c1cccs1)C(O)(C(F)(F)F)C(F)(F)F (stereo not given)
inactive: [1] > 100 µM | [2] > 100 µM | [3] > 100 µM | [4] > 100 µM | [5] > 100 µM | [6] 3.39 µM | [7] > 100 µM | [8] > 100 µM | [9] > 100 µM | [10] > 100 µM | [11] > 100 µM | [12] > 100 µM | [13] > 100 µM | [14] > 100 µM | [15] > 100 µM | [16] > 100 µM | [17] > 100 µM | [18] > 100 µM | [19] > 100 µM | [20] > 100 µM

C[N+]1(CCCCN2c3ccccc3Sc3cc(N=[N+]=[N-])ccc32)CCN(C(=O)CCNC(=O)Cc2ccc(C(=O)c3ccccc3)cc2)CC1
inactive: [1] 23.4 µM | [2] 23.4 µM | [3] 29 µM | [4] 14.7 µM | [5] 34.7 µM | [6] 9.1 µM | [7] 21.2 µM | [8] 25.9 µM | [9] 29.2 µM | [10] 18.9 µM | [11] 19.3 µM | [12] 18.7 µM | [13] 18.7 µM | [14] 21.7 µM | [15] 29.2 µM | [16] 22.6 µM | [17] 24.3 µM | [18] 19.7 µM | [19] 23.4 µM | [20] 32.9 µM

C=C1C(=O)OC2CC(C)C3(O)CCC(=O)C3(C)CC12 (stereo not given)
inactive: [1] 23.8 µM | [2] 18.5 µM | [3] 46.8 µM | [4] 40 µM | [5] 24.6 µM | [6] 18 µM | [7] 18.7 µM | [8] 31.1 µM | [9] 42.1 µM | [10] 57.1 µM | [11] 28.2 µM | [12] 19.5 µM | [13] 14.8 µM | [14] 40.5 µM | [15] 44.2 µM | [16] 28.2 µM | [17] 20.7 µM | [18] 29.2 µM | [19] 22 µM | [20] 16.1 µM

O=C1OC2c3ccccc3C(=O)C2(c2ccccc2)N1c1ccccc1 (stereo not given)
inactive: [1] > 200 µM | [2] > 200 µM | [3] > 200 µM | [4] 86.1 µM | [5] > 200 µM | [6] 29.9 µM | [7] > 200 µM | [8] > 200 µM | [9] > 200 µM | [10] > 200 µM | [11] 72.6 µM | [12] > 200 µM | [13] 132 µM | [14] > 200 µM | [15] > 200 µM | [16] > 200 µM | [17] > 200 µM | [18] > 200 µM | [19] > 200 µM | [20] > 200 µM

CC[C@]12C=CCN3CC[C@@]4(c5cc(Br)c(OC)cc5N(C)[C@H]4[C@@](O)(C(=O)NC(Cc4c[nH]c5ccccc45)C(=O)OC)[C@@H]1O)[C@@H]32 (stereo not given in full)
inactive: [1] 19.4 µM | [2] 6.15 µM | [3] > 100 µM | [4] 3.46 µM | [5] 6.59 µM | [6] 13.5 µM | [7] 20.5 µM | [8] 7.08 µM | [9] 89.7 µM | [10] 22.3 µM | [11] 20.8 µM | [12] 11.6 µM | [13] 2.94 µM | [14] 9.46 µM | [15] 7.94 µM | [16] 12.6 µM | [17] 11 µM | [18] 12.3 µM | [19] 20.5 µM | [20] 16.4 µM

COC1C(OC(=O)/C=C/C=C/C=C/C=C/C(=O)O)CCC2(CO2)C1C1(C)OC1CC=C(C)C (stereo not given)
inactive: [1] 46.3 µM | [2] 34.5 µM | [3] > 59.6 µM | [4] 12.4 µM | [5] 29.3 µM | [6] 16.4 µM | [7] 21.1 µM | [8] 12.6 µM | [9] 21 µM | [10] 27.4 µM | [11] 24.5 µM | [12] 26.2 µM | [13] 20.1 µM | [14] 17.3 µM | [15] 21.6 µM | [16] 62.1 µM | [17] 12.4 µM | [18] 25.1 µM | [19] 13.6 µM | [20] 42.3 µM

CC(C)(OCc1ccccc1)c1ccccc1P(c1ccccc1)c1ccccc1
inactive: [1] 50.1 µM | [2] 83.8 µM | [3] > 100 µM | [4] 27 µM | [5] 39.9 µM | [6] 13.5 µM | [7] 31.3 µM | [8] 40 µM | [9] 82.2 µM | [10] 35.2 µM | [11] 87.7 µM | [12] 26.2 µM | [13] 4.04 µM | [14] 44.8 µM | [15] 28.8 µM | [16] 60 µM | [17] 23.1 µM | [18] 40.4 µM | [19] 43.6 µM | [20] > 100 µM
